According to patent US20250346585A1 (Alexion Pharmaceuticals, Inc., priority 2022, published 2025):

target: Human complement C1s enzyme (Homo sapiens (Human), UniProt P09871); assay: Human C1s enzyme assay; type: biochemical; conditions: Human C1s enzyme assay of Example 3; read-out: IC50 (Stars)
Method in brief: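 IC50 derived by nonlinear regression of rate versus concentration, with rate taken from A405 kinetics (30 s intervals, 30 min) after adding 100 μM each Z-L-Lys-SBzl and DTNB. C1s from human serum, 1.16 nM, exposed to compound for 5 min at RT beforehand; buffer 50 mM Tris, 1 M NaCl, pH 7.5.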

Chain of Human complement C1s enzyme (P09871 438-688 limits assumed): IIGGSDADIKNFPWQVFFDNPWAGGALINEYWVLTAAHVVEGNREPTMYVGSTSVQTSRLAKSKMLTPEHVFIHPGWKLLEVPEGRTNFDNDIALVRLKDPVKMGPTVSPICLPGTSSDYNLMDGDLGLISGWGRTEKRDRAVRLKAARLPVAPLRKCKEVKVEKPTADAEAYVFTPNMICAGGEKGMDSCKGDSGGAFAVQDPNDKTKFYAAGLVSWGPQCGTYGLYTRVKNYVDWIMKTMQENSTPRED
Chain of Human complement C1s enzyme (P09871 16-437 partner limits assumed): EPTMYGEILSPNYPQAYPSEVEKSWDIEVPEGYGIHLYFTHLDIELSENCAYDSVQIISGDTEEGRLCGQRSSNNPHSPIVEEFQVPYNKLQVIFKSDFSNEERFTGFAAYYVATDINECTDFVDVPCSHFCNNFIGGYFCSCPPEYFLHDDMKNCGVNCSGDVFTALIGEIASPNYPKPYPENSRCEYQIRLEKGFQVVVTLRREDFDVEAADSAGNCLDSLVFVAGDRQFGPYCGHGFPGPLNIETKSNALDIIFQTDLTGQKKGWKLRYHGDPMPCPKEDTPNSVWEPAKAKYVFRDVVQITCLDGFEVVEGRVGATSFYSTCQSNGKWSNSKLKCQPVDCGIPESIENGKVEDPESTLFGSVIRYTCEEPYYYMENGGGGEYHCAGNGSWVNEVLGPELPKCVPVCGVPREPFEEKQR

Row | IC50 [nM] | Structure (SMILES)
1 | < 100 | C[C@@H](NC(=O)[C@@H]1CC2(CN1C(=O)CNC(=O)c1ccc(-c3ccc(F)cn3)cc1)OCCO2)c1cc(C(=N)N)cs1 [Compound 164, (S)—N—((R)-1-(4-carbamimidoylthiophen-2-yl)ethyl)-7-((4-(5-fluoropyridin-2-yl)benzoyl)glycyl)-1,4-dioxa-7-azaspiro[4.4]nonane-8-carboxamide]
2 | > 1000 | Nc1ncc(-c2csc(CNC(=O)[C@@H]3CC4(CN3C(=O)CNC(=O)c3ccc(Oc5ccc(F)cc5)cc3)OCCO4)c2)s1 [Compound 187, (S)—N-((4-(2-aminothiazol-5-yl)thiophen-2-yl)methyl)-7-((4-(4-fluorophenoxy)benzoyl)glycyl)-1,4-dioxa-7-azaspiro[4.4]nonane-8-carboxamide]
3 | < 100 | N=C(N)c1csc(CNC(=O)[C@@H]2CC3(CN2C(=O)CNC(=O)c2ccc(-c4ccccc4)cc2)OCCO3)c1 [Compound 77, (S)-7-(([1,1′-biphenyl]-4-carbonyl)glycyl)-N-((4-carbamimidoylthiophen-2-yl)methyl)-1,4-dioxa-7-azaspiro[4.4]nonane-8-carboxamide]
4 | > 1000 | C[C@@H](NC(=O)[C@@H]1CC2(CN1C(=O)CNC(=O)c1ccc3c(c1)-c1ccccc1C3(F)F)OCCO2)c1cc(-c2nccs2)cs1 [Compound 114, (S)-7-((9,9-difluoro-9H-fluorene-3-carbonyl)glycyl)-N—((R)-1-(4-(thiazol-2-yl)thiophen-2-yl)ethyl)-1,4-dioxa-7-azaspiro[4.4]nonane-8-carboxamide]
5 | < 100 | C[C@@H](NC(=O)[C@@H]1C[C@]2(CO)C[C@@H]2N1C(=O)CNC(=O)c1ccc(Oc2ccc(F)cc2)cc1)c1ccc(C(=N)N)s1 [Compound 41, (1S,3S,5R)—N—((R)-1-(5-carbamimidoylthiophen-2-yl)ethyl)-2-((4-(4-fluorophenoxy)benzoyl)glycyl)-5-(hydroxymethyl)-2-azabicyclo[3.1.0]hexane-3-carboxamide]
6 | < 100 | Cc1ccc2c(c1)C(F)(F)c1ccc(C(=O)NCC(=O)N3CC4(C[C@H]3C(=O)N[C@H](C)c3cc(C(=N)N)cs3)OCCO4)cc1-2 [Compound 190, (S)—N—((R)-1-(4-carbamimidoylthiophen-2-yl)ethyl)-7-((9,9-difluoro-7-methyl-9H-fluorene-3-carbonyl)glycyl)-1,4-dioxa-7-azaspiro[4.4]nonane-8-carboxamide]
7 | < 100 | CC(NC(=O)[C@@H]1C[C@@H](Oc2ccccc2)CN1C(=O)CNC(=O)c1ccc2c(c1)-c1ccccc1C2(F)F)c1cc(C(=N)N)cs1 (stereo in doubt) [Compound 51, (2S,4R)—N—((S)-1-(4-carbamimidoylthiophen-2-yl)ethyl)-1-((9,9-difluoro-9H-fluorene-3-carbonyl)glycyl)-4-phenoxypyrrolidine-2-carboxamide]

same assay, conditions: Human complement C1s enzyme 1.16 nM, substrate Z-L-Lys-SBzl 100 μM, assay of Example 3; read-out: IC50 (Stars)

Row | Structure (SMILES) | IC50 [nM]
8 | COC[C@@]1(F)C[C@@H](C(=O)N[C@H](C)c2cc(/C(N)=N\C(=O)OC)cs2)N(C(=O)CNC(=O)c2ccc3c(c2)-c2ccccc2C3(F)F)C1 [Compound 232, methyl ((E)-amino(5-((R)-1-((2S,4R)-1-((9,9-difluoro-9H-fluorene-3-carbonyl)glycyl)-4-fluoro-4-(methoxymethyl)pyrrolidine-2-carboxamido)ethyl)thiophen-3-yl)methylene)carbamate] | < 100
9 | C[C@@H](NC(=O)[C@@H]1C[C@](F)(CF)CN1C(=O)CNC(=O)c1ccc2cc3ccccc3cc2c1)c1cc(C(=N)N)cs1 [Compound 235, (2S,4R)-1-((anthracene-2-carbonyl)glycyl)-N—((R)-1-(4-carbamimidoylthiophen-2-yl)ethyl)-4-fluoro-4-(fluoromethyl)pyrrolidine-2-carboxamide] | < 100
10 | N=C(N)c1csc(CNC(=O)[C@@H]2CC3(CN2C(=O)CNC(=O)c2ccc(-c4ccc(C(=O)O)cc4)cc2)OCCO3)c1 [Compound 214, (S)-4′-((2-(8-(((4-carbamimidoylthiophen-2-yl)methyl)carbamoyl)-1,4-dioxa-7-azaspiro[4.4]nonan-7-yl)-2-oxoethyl)carbamoyl)-[1,1′-biphenyl]-4-carboxylic acid] | < 100
11 | C[C@@H](NC(=O)[C@@H]1C[C@](F)(CF)CN1C(=O)CNC(=O)c1ccc2oc3ccccc3c2c1)c1cc(C(=N)N)cs1 [Compound 223, (2S,4R)—N—((R)-1-(4-carbamimidoylthiophen-2-yl)ethyl)-1-((dibenzo[b,d]furan-2-carbonyl)glycyl)-4-fluoro-4-(fluoromethyl)pyrrolidine-2-carboxamide] | < 100

Second part, the molecule after the results:

Row | IC50 [nM] | Structure (SMILES)
12 | > 1000 | NCCCCNc1csc(CNC(=O)[C@@H]2CC3(CN2C(=O)CNC(=O)c2ccc(Oc4ccc(F)cc4)cc2)OCCO3)c1 [Compound 318, (S)-N-((4-((4-aminobutyl)amino)thiophen-2-yl)methyl)-7-((4-(4-fluorophenoxy)benzoyl)glycyl)-1,4-dioxa-7-azaspiro[4.4]nonane-8-carboxamide]
13 | < 100 | C[C@@H](NC(=O)[C@@H]1C[C@@H](S(C)(=O)=O)CN1C(=O)CNC(=O)c1ncc(-c2ccccc2)cc1F)c1cc(C(=N)N)cs1 [Compound 339, N-(2-((2S,4R)-2-(((R)-1-(4-carbamimidoylthiophen-2-yl)ethyl)carbamoyl)-4-(methylsulfonyl)pyrrolidin-1-yl)-2-oxoethyl)-3-fluoro-5-phenylpicolinamide]
14 | < 100 | C[C@@H](NC(=O)[C@@H]1C[C@]2(COCCCN)C[C@@H]2N1C(=O)CNC(=O)c1ccc2c(c1)-c1ccccc1C2(F)F)c1cc(C(=N)N)cs1 [Compound 382, (1S,3S,5R)-5-((3-aminopropoxy)methyl)-N—((R)-1-(4-carbamimidoylthiophen-2-yl)ethyl)-2-((9,9-difluoro-9H-fluorene-3-carbonyl)glycyl)-2-azabicyclo[3.1.0]hexane-3-carboxamide]
15 | < 100 | C[C@@H](NC(=O)[C@@H]1CC2(CN1C(=O)CCC(=O)c1ccc(-c3ccccc3)cc1)OCCO2)c1cc(C(=N)N)cs1 [Compound 345, (S)-7-(4-([1,1′-biphenyl]-4-yl)-4-oxobutanoyl)-N—((R)-1-(4-carbamimidoylthiophen-2-yl)ethyl)-1,4-dioxa-7-azaspiro[4.4]nonane-8-carboxamide]
16 | < 100 | CC1c2ccccc2-c2ccc(C(=O)NCC(=O)N3C[C@H](OC(F)F)C[C@H]3C(=O)N[C@H](C)c3cc(C(=N)N)cs3)cc21 (stereo partly drawn) [Compound 357, (2S,4R)—N—((R)-1-(4-carbamimidoylthiophen-2-yl)ethyl)-4-(difluoromethoxy)-1-((9-methyl-9H-fluorene-2-carbonyl)glycyl)pyrrolidine-2-carboxamide]
17 | < 100 | C[C@@H](NC(=O)[C@@H]1C[C@@](C)(F)CN1C(=O)CNC(=O)c1ccc2c(c1)-c1ccccc1C2(F)F)c1cc(C(=N)N)cs1 [Compound 268, (2S,4R)—N—((R)-1-(4-carbamimidoylthiophen-2-yl)ethyl)-1-((9,9-difluoro-9H-fluorene-3-carbonyl)glycyl)-4-fluoro-4-methylpyrrolidine-2-carboxamide]
18 | < 100 | C[C@@H](NC(=O)[C@@H]1C[C@](F)(CF)CN1C(=O)CNC(=O)c1ccc2c(c1)-c1ccccc1S2(=O)=O)c1cc(C(=N)N)cs1 [Compound 336, (2S,4R)—N—((R)-1-(4-carbamimidoylthiophen-2-yl)ethyl)-1-((5,5-dioxidodibenzo[b,d]thiophene-2-carbonyl)glycyl)-4-fluoro-4-(fluoromethyl) pyrrolidine-2-carboxamide]
19 | < 100 | C[C@@H](NC(=O)[C@@H]1CC2(CN1C(=O)CN1Cc3cc(-c4ccc(F)cc4F)ccc3C1=O)OCCO2)c1cc(C(=N)N)cs1 [Compound 366]
